How the values were obtained:
HL60 cells = assay: AsedaSciences SYSTEMETRIC Cell Health Screen (flow cytometry toxicity profiling); conditions: HL60, 4 h, 5 nM–100 µM; for CC: Cell Cycle score / CM: Cell morphology score / CMI: Cell membrane integrity score / GSH: Glutathione score / MMP: Mitochondrial membrane depolarization score / NMI1: Nuclear membrane integrity 1 score / NMI2: Nuclear membrane integrity 2 score / ROS: Reactive superoxide species score: probability 0–1, n = 2; for CHI: Cell Health Index: probability (0–1) of high-risk class, n = 2
Method in brief: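 Risk scores derive from a logistic-regression ML classifier comparing flow-cytometric stress phenotypes with those of 300 reference compounds of known high or low human risk. Phenotypes: light scatter plus fluorescent physiological dyes, twelve parameters, no gating. Compounds tested 5 nM–100 µM (3× steps, duplicate) on HL60 cells, 4 h, 37 °C.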

[1] = tested on: CH22 patient-derived chordoma cell line; assay: Cell viability assay (alamarBlue, 72 h), CH22; assay type: cell-based, human; conditions: n = 4, 72 h
Procedure: (§1) Chordoma cell lines were cultured as described previously[10],[12],[33],[34]. Briefly, U-CH1 and U-CH2 cell lines were cultured in 4:1 IMDM:RPMI medium supplemented with 10% fetal bovine serum (FBS) and 1% penicillin/streptomycin in gel-coated flasks. […] CH22, UM-Chor1, U-CH12, and U-CH7 cell lines were cultured in RPMI medium supplemented with 10% FBS and 1% penicillin/streptomycin. The cell lines all undergo regular mycoplasma screening.
(§2) Cells were seeded in 384 well plates and were treated with test compound in quadruplicate 24 h after plating. Cell viability was assessed at 72 h using alamarBlue (ThermoFisher, USA). […] IC50 values were determined by four-parameter nonlinear regression analyses using GraphPad Prism™ version 8 software (San Diego, CA).

U-CH1 chordoma cell line = assay: Cell viability assay (alamarBlue, 72 h), U-CH1; assay type: cell-based, human; conditions: n = 4, 72 h
Method in brief: (§3)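 Compound added in quadruplicate 24 h after plating; cultures maintained in 4:1 IMDM:RPMI, 10% FBS, gel-coated flasks.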

[2] = tested on: U-CH12 patient-derived chordoma cell line; assay: Cell viability assay (alamarBlue, 72 h), U-CH12; assay type: cell-based, human; conditions: n = 4, 72 h
Procedure: as §1, §2

[3] = tested on: UM-Chor1 patient-derived chordoma cell line; assay: Cell viability assay (alamarBlue, 72 h), UM-Chor1; assay type: cell-based, human; conditions: n = 4, 72 h
Procedure: as §1, §2

U-CH2 chordoma cell line = assay: Cell viability assay (alamarBlue, 72 h), U-CH2; assay type: cell-based, human; conditions: n = 4, 72 h
Method in brief: as §3

[4] = tested on: WS1 human fibroblast cell line; assay: Cell viability assay, WS1 toxicity control; assay type: cell-based; conditions: n = 4, nonspecific toxicity control
Procedure: as §2

[5] = tested on: U-CH7 patient-derived chordoma cell line; assay: Cell viability assay (alamarBlue, 72 h), U-CH7; assay type: cell-based, human; conditions: n = 4, 72 h
Procedure: as §1, §2

EGFR = EGFR (Homo sapiens, UniProt P00533); assay: ProQinase in-cell EGFR assay (EGFR phosphorylation in A431 cells); assay type: cell-based; set-up: This cell line endogenously expresses a high level of EGFR; endogenous in cells; host or cells: A431
Chain of EGFR (P00533 25-1210): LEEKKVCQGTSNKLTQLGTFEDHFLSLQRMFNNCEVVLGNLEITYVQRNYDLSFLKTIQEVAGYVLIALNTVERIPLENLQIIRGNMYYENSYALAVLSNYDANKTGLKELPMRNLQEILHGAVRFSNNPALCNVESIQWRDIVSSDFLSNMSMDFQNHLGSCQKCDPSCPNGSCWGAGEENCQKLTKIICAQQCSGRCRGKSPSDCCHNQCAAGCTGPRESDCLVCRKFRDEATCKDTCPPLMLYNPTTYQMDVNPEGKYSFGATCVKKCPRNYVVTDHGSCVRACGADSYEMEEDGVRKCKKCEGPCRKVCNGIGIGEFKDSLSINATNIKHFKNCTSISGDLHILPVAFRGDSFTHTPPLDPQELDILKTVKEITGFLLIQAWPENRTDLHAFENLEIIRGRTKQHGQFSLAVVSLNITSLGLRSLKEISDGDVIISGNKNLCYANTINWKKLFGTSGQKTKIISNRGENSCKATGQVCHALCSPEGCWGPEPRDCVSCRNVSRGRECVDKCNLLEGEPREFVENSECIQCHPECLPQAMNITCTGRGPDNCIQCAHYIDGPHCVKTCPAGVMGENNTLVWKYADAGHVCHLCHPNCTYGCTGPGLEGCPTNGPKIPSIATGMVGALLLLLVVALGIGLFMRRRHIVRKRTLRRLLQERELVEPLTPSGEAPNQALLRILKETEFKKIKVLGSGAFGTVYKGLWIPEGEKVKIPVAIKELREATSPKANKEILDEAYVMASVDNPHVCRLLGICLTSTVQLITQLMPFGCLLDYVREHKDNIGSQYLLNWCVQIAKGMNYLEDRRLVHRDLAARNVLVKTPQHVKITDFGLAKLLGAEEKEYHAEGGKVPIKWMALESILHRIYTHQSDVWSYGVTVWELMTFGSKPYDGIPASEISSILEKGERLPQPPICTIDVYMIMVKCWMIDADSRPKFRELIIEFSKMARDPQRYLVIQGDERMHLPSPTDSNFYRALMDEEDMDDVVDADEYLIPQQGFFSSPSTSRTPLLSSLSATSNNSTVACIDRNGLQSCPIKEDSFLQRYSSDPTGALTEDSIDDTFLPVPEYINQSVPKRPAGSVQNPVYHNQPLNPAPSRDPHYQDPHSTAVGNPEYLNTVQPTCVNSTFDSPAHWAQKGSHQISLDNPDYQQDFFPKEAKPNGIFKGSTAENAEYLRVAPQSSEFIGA
Description: In addition, we ran an EGFR in-cell target engagement assay, measuring in-cell EGFR phosphorylation, using the human epidermoid carcinoma cell line A431. This cell line endogenously expresses a high level of EGFR, and stimulation of these cells with human epidermal growth factor (EGF) results in receptor tyrosine autophosphorylation.

[6] = ProQinase in-cell EGFR assay, A431 cells, n = 1

Compound | CC: Cell Cycle score (HL60 cells) | CM: Cell morphology score (HL60 cells) | CMI: Cell membrane integrity score (HL60 cells) | GSH: Glutathione score (HL60 cells) | MMP: Mitochondrial membrane depolarization score (HL60 cells) | NMI1: Nuclear membrane integrity 1 score (HL60 cells) | NMI2: Nuclear membrane integrity 2 score (HL60 cells) | ROS: Reactive superoxide species score (HL60 cells) | CHI: Cell Health Index (HL60 cells) | IC50 [1] [µM] | IC50 (U-CH1 chordoma cell line) [µM] | IC50 [2] [µM] | IC50 [3] [µM] | IC50 (U-CH2 chordoma cell line) [µM] | IC50 [4] [µM] | IC50 [5] [µM] | IC50 (EGFR; [6]) [µM] | IC50 (EGFR; in-cell EGFR inhibition) [µM]
C#Cc1cccc(Nc2ncnc3cc(C(F)(F)F)ccc23)c1 [Compound 16] | 0.92 | 1.00 | 0.87 | 0.79 | 1.00 | 0.6 | 0.93 | 1.00 | 0.78 | 8 | 12 | 7.5 | 31 | 15 | 18 | 63 | > 20 | 
C#Cc1cccc(Nc2ncnc3cc(OC)c(OC)cc23)c1F [Compound 43] | 0.059 | 0.0093 | 0.56 | 0.38 | 0.28 | 0.10 | 0.59 | 0.024 | 0.33 | 5.8 | 2 | > 100 | > 100 | 7.1 | 12 | 57 | 0.06 | 
C#Cc1cc(Nc2ncnc3cc(OC)c(OC)cc23)ccc1F [Compound 44] | 0.027 | 0.83 | 0.40 | 0.054 | 0.15 | 0.44 | 0.18 | 0.66 | 0.34 | 0.3 | > 100 | 0.87 | 7.2 | 22 | 0.33 | 0.68 | 0.03 | < 0.1
C#Cc1cccc(Nc2ncnc3cc(C#N)ccc23)c1 [Compound 17] | 0.25 | 0.43 | 0.052 | 0.04 | 0.10 | 0.37 | 0.10 | 0.41 | 0.45 | > 100 | 65 | > 100 | > 100 | > 100 | > 100 | > 100 | > 20 | 
C#Cc1ccc(F)c(Nc2ncnc3cc(OC)c(OC)cc23)c1 [Compound 42] | 0.67 | 0.31 | 0.78 | 0.25 | 0.89 | 0.13 | 0.85 | 0.63 | 0.48 | 4.2 | 6.7 | > 100 | > 100 | 20 | 20 | > 100 | 0.29 | 
C#Cc1cccc(Nc2ccnc3cc(I)ccc23)c1F [Compound 39] | 0.64 | 0.98 | 0.30 | 0.92 | 0.60 | 0.15 | 0.75 | 0.99 | 0.43 | 40 | 2.4 | 33 | 62 | 15 | 40 | 49 | 1.7 | 
C#Cc1cccc(Nc2ncnc3cc4c(cc23)OCCO4)c1 [Compound 21] | 0.77 | 0.053 | 0.91 | 0.39 | 0.91 | 0.73 | 0.83 | 0.85 | 0.56 | > 100 | 8.8 | > 100 | 64 | > 100 | > 100 | > 100 | 1.9 | 

Reference: article PMC9329436, “Optimization of the 4-anilinoquin(az)oline scaffold as epidermal growth factor receptor (EGFR) inhibitors for chordoma utilizing a toxicology profiling assay platform” (Scientific Reports, 2022)
